In series [1] the test system is atopic dermatitis. Briefly: Topical treatment of atopic dermatitis lesions in individual subjects (case reports, Examples 11-15). The class given is in vivo, human. The note with it: topical application to atopic dermatitis lesion.
Text: The product was applied on an irregular basis with the longest exposure time at night.
A subject with an atopic dermatitis lesion on the palm of the right hand is presently being treated with the invention containing betamethasone and clemastine hydrogen fumarate.
The conditions of series [2]: 15, 45, and 120 mg/kg/day orally, 39 weeks; cited from earlier work.
For series [3], the system named is atopic dermatitis. The following applies: cited from earlier work.
The test system of series [4] is atopic dermatitis. The note with it: 0.2%, 0.6% and 1.0% creams; 260 patients; cited from earlier work.
[5] abbreviates: 192 adults with moderate to severe AD.

As for betamethasone propionate, the “outcome of the lesion” value in series [1] is listed as “no improvement”.
As to `CC[C@@H]1/C=C(\C)C[C@H](C)C[C@H](OC)[C@H]2O[C@@](O)(C(=O)C(=O)N3CCCC[C@H]3C(=O)O[C@H](/C(C)=C/[C@@H]3CC[C@H](Cl)[C@H](OC)C3)[C@H](C)[C@@H](O)CC1=O)[C@H](C)C[C@@H]2OC` [pimecrolimus], the “finding associated with oral dosing” value in series [2] was “immunosuppression-related lymphoproliferative disorders”. Moreover, the “days on which corticosteroid medication for flares was used” value in series [3] (24-week treatment period) is recorded as 14.2 % of the days. Moreover, in series [3] (setting [5]), the “median time to first flare” value is 144 days and the “patients who did not experience a flare” value is recorded as 44.8%. The efficacy vs vehicle result in series [4] was “significantly more effective than vehicle”.

Source of the values: patent US20100008868A1, “SUSTAINED REMISSION OF ATOPIC DERMATITIS” (priority 2007, published 2010).
